Laboratory results: ChEMBL document CHEMBL3045793, “The synthesis, anti-inflammatory and antimicrobial activity evaluation of novel thioanalogs of 3,4-dihydrothiopyrimidin-2(1H)-one derivatives of N-aryl urea” (2012)
In brackets after ≈: the same amount, converted by molar mass. Activity calls are given as the source filed them. The calls are words filed in the database; no cut-off is given here.

Tests used:
Aspergillus niger [1] = assay: Antifungal activity against Aspergillus niger by agar well diffusion method; format: functional
Fusarium solani [2] = assay: Antifungal activity against Fusarium solani up to 200 ug/ml by agar well diffusion method; format: functional, organism-based
Escherichia coli [3] = assay: Antibacterial activity against Escherichia coli by agar well diffusion method; format: functional
THP-1 [4] = assay: Anti-inflammatory activity in Homo sapiens (human) THP1 cells assessed as inhibition of LPS-induced IL-6 production preincubated at 10 uM for 30 min before LPS treatment measured after 24 hr by ELISA; format: functional
Staphylococcus aureus = assay: Antibacterial activity against Staphylococcus aureus by agar well diffusion method; format: functional
Bacillus subtilis [5] = assay: Antibacterial activity against Bacillus subtilis by agar well diffusion method; format: functional
THP-1 [6] = assay: Anti-inflammatory activity in Homo sapiens (human) THP1 cells assessed as inhibition of LPS-induced TNF-alpha production preincubated at 10 uM for 30 min before LPS treatment measured after 24 hr by ELISA; format: functional
Salmonella typhimurium [7] = assay: Antibacterial activity against Salmonella enterica subsp. enterica serovar Typhimurium by agar well diffusion method; format: functional
Aspergillus flavus [8] = assay: Antifungal activity against Aspergillus flavus up to 200 ug/ml by agar well diffusion method; format: functional, organism-based
Candida albicans [9] = assay: Antifungal activity against Candida albicans by agar well diffusion method; format: functional
Fusarium solani [10] = assay: Antifungal activity against Fusarium solani by agar well diffusion method; format: functional
Aspergillus flavus [11] = assay: Antifungal activity against Aspergillus flavus by agar well diffusion method; format: functional
Aspergillus niger [12] = assay: Antifungal activity against Aspergillus niger up to 200 ug/ml by agar well diffusion method; format: functional, organism-based
Escherichia coli [13] = assay: Antibacterial activity against Escherichia coli up to 200 ug/ml by agar well diffusion method; format: functional, organism-based
Salmonella typhimurium [14] = assay: Antibacterial activity against Salmonella enterica subsp. enterica serovar Typhimurium up to 200 ug/ml by agar well diffusion method; format: functional, organism-based
Bacillus subtilis [15] = assay: Antibacterial activity against Bacillus subtilis up to 200 ug/ml by agar well diffusion method; format: functional, organism-based
Candida albicans [16] = assay: Antifungal activity against Candida albicans up to 200 ug/ml by agar well diffusion method; format: functional, organism-based

CCOC(=O)C1=C(C)NC(=S)NC1c1ccc(NC(=S)Nc2c(F)cccc2Cl)cc1 (stereo unspecified)
MIC (Aspergillus niger [1]): 85 µg/mL (≈ 177 µM)
Activity (Fusarium solani [2]): inactive
MIC (Escherichia coli [3]): 85 µg/mL (≈ 177 µM)
inhibition at 10 µM (THP-1 [4]): 56%
MIC (Staphylococcus aureus): 60 µg/mL (≈ 125 µM)
MIC (Bacillus subtilis [5]): 80 µg/mL (≈ 167 µM)
inhibition at 10 µM (THP-1 [6]): 42%
MIC (Salmonella typhimurium [7]): 60 µg/mL (≈ 125 µM)
Activity (Aspergillus flavus [8]): inactive
MIC (Candida albicans [9]): 65 µg/mL (≈ 136 µM)

CCOC(=O)C1=C(C)NC(=S)NC1c1ccc(NC(=S)Nc2cccc(C(F)(F)F)c2)cc1 (stereo unspecified)
MIC (Aspergillus niger [1]): 25 µg/mL (≈ 50.5 µM)
MIC (Fusarium solani [10]): 15 µg/mL (≈ 30.3 µM)
MIC (Escherichia coli [3]): 20 µg/mL (≈ 40.4 µM)
inhibition at 10 µM (THP-1 [4]): 16%
MIC (Staphylococcus aureus): 20 µg/mL (≈ 40.4 µM)
MIC (Bacillus subtilis [5]): 35 µg/mL (≈ 70.8 µM)
MIC (Aspergillus flavus [11]): 15 µg/mL (≈ 30.3 µM)
inhibition at 10 µM (THP-1 [6]): 0%
MIC (Salmonella typhimurium [7]): 15 µg/mL (≈ 30.3 µM)
MIC (Candida albicans [9]): 15 µg/mL (≈ 30.3 µM)

CCOC(=O)C1=C(C)NC(=S)NC1c1ccc(NC(=S)Nc2ccc(F)c(C)c2)cc1 (stereo unspecified)
MIC (Fusarium solani [10]): 95 µg/mL (≈ 207 µM)
Activity (Aspergillus niger [12]): inactive
inhibition at 10 µM (THP-1 [4]): 27%
MIC (Staphylococcus aureus): 80 µg/mL (≈ 174 µM)
Activity (Escherichia coli [13]): inactive
Activity (Salmonella typhimurium [14]): inactive
inhibition at 10 µM (THP-1 [6]): 0%
Activity (Aspergillus flavus [8]): inactive
Activity (Bacillus subtilis [15]): inactive
MIC (Candida albicans [9]): 95 µg/mL (≈ 207 µM)

CCOC(=O)C1=C(C)NC(=S)NC1c1ccc(NC(=S)Nc2ccccc2OC(F)(F)F)cc1 (stereo unspecified)
MIC (Aspergillus niger [1]): 30 µg/mL (≈ 58.8 µM)
MIC (Fusarium solani [10]): 10 µg/mL (≈ 19.6 µM)
MIC (Escherichia coli [3]): 35 µg/mL (≈ 68.6 µM)
inhibition at 10 µM (THP-1 [4]): 54%
MIC (Staphylococcus aureus): 45 µg/mL (≈ 88.1 µM)
MIC (Bacillus subtilis [5]): 20 µg/mL (≈ 39.2 µM)
MIC (Aspergillus flavus [11]): 15 µg/mL (≈ 29.4 µM)
inhibition at 10 µM (THP-1 [6]): 27%
MIC (Salmonella typhimurium [7]): 10 µg/mL (≈ 19.6 µM)
MIC (Candida albicans [9]): 10 µg/mL (≈ 19.6 µM)

CCOC(=O)C1=C(C)NC(=S)NC1c1ccc(NC(=S)Nc2ccc(F)c(Cl)c2)cc1 (stereo unspecified)
Activity (Candida albicans [16]): inactive
MIC (Fusarium solani [10]): 95 µg/mL (≈ 198 µM)
Activity (Aspergillus niger [12]): inactive
inhibition at 10 µM (THP-1 [4]): 58%
MIC (Staphylococcus aureus): 80 µg/mL (≈ 167 µM)
Activity (Escherichia coli [13]): inactive
Activity (Salmonella typhimurium [14]): inactive
inhibition at 10 µM (THP-1 [6]): 0%
Activity (Aspergillus flavus [8]): inactive
Activity (Bacillus subtilis [15]): inactive

CCOC(=O)C1=C(C)NC(=S)NC1c1ccc(NC(=S)Nc2ccc(C(C)C)cc2)cc1 (stereo unspecified)
MIC (Aspergillus niger [1]): 80 µg/mL (≈ 171 µM)
MIC (Fusarium solani [10]): 70 µg/mL (≈ 149 µM)
MIC (Escherichia coli [3]): 90 µg/mL (≈ 192 µM)
inhibition at 10 µM (THP-1 [4]): 90%
MIC (Staphylococcus aureus): 70 µg/mL (≈ 149 µM)
MIC (Bacillus subtilis [5]): 55 µg/mL (≈ 117 µM)
MIC (Aspergillus flavus [11]): 95 µg/mL (≈ 203 µM)
inhibition at 10 µM (THP-1 [6]): 61%
MIC (Salmonella typhimurium [7]): 90 µg/mL (≈ 192 µM)
MIC (Candida albicans [9]): 80 µg/mL (≈ 171 µM)

CCOC(=O)C1=C(C)NC(=S)NC1c1ccc(NC(=S)Nc2c(Cl)cccc2C(F)(F)F)cc1 (stereo unspecified)
MIC (Aspergillus niger [1]): 90 µg/mL (≈ 170 µM)
Activity (Fusarium solani [2]): inactive
MIC (Escherichia coli [3]): 90 µg/mL (≈ 170 µM)
inhibition at 10 µM (THP-1 [4]): 62%
MIC (Staphylococcus aureus): 65 µg/mL (≈ 123 µM)
MIC (Aspergillus flavus [11]): 90 µg/mL (≈ 170 µM)
inhibition at 10 µM (THP-1 [6]): 46%
MIC (Salmonella typhimurium [7]): 90 µg/mL (≈ 170 µM)
Activity (Bacillus subtilis [15]): inactive
MIC (Candida albicans [9]): 85 µg/mL (≈ 161 µM)

CCOC(=O)C1=C(C)NC(=S)NC1c1ccc(NC(=S)Nc2c(C)cccc2F)cc1 (stereo unspecified)
MIC (Aspergillus niger [1]): 55 µg/mL (≈ 120 µM)
MIC (Fusarium solani [10]): 65 µg/mL (≈ 142 µM)
MIC (Escherichia coli [3]): 70 µg/mL (≈ 153 µM)
inhibition at 10 µM (THP-1 [4]): 16%
MIC (Staphylococcus aureus): 90 µg/mL (≈ 196 µM)
MIC (Aspergillus flavus [11]): 60 µg/mL (≈ 131 µM)
inhibition at 10 µM (THP-1 [6]): 0%
MIC (Salmonella typhimurium [7]): 90 µg/mL (≈ 196 µM)
Activity (Bacillus subtilis [15]): inactive
MIC (Candida albicans [9]): 50 µg/mL (≈ 109 µM)

CCOC(=O)C1=C(C)NC(=S)NC1c1ccc(NC(=S)Nc2ccc(C(F)(F)F)cc2Cl)cc1 (stereo unspecified)
MIC (Aspergillus niger [1]): 55 µg/mL (≈ 104 µM)
MIC (Fusarium solani [10]): 90 µg/mL (≈ 170 µM)
MIC (Escherichia coli [3]): 65 µg/mL (≈ 123 µM)
inhibition at 10 µM (THP-1 [4]): 68%
MIC (Staphylococcus aureus): 90 µg/mL (≈ 170 µM)
MIC (Bacillus subtilis [5]): 55 µg/mL (≈ 104 µM)
MIC (Aspergillus flavus [11]): 60 µg/mL (≈ 113 µM)
inhibition at 10 µM (THP-1 [6]): 55%
MIC (Salmonella typhimurium [7]): 55 µg/mL (≈ 104 µM)
MIC (Candida albicans [9]): 50 µg/mL (≈ 94.5 µM)

CCOC(=O)C1=C(C)NC(=S)NC1c1ccc(NC(=S)Nc2ccc(C(F)(F)F)cc2)cc1 (stereo unspecified)
MIC (Aspergillus niger [1]): 10 µg/mL (≈ 20.2 µM)
MIC (Fusarium solani [10]): 10 µg/mL (≈ 20.2 µM)
MIC (Escherichia coli [3]): 10 µg/mL (≈ 20.2 µM)
inhibition at 10 µM (THP-1 [4]): 48%
MIC (Staphylococcus aureus): 10 µg/mL (≈ 20.2 µM)
MIC (Bacillus subtilis [5]): 15 µg/mL (≈ 30.3 µM)
MIC (Aspergillus flavus [11]): 15 µg/mL (≈ 30.3 µM)
inhibition at 10 µM (THP-1 [6]): 8%
MIC (Salmonella typhimurium [7]): 30 µg/mL (≈ 60.7 µM)
MIC (Candida albicans [9]): 10 µg/mL (≈ 20.2 µM)

CCOC(=O)C1=C(C)NC(=S)NC1c1ccc(NC(=S)Nc2ccccc2F)cc1 (stereo unspecified)
MIC (Aspergillus niger [1]): 10 µg/mL (≈ 22.5 µM)
MIC (Fusarium solani [10]): 15 µg/mL (≈ 33.7 µM)
MIC (Escherichia coli [3]): 10 µg/mL (≈ 22.5 µM)
inhibition at 10 µM (THP-1 [4]): 22%
MIC (Staphylococcus aureus): 10 µg/mL (≈ 22.5 µM)
MIC (Bacillus subtilis [5]): 25 µg/mL (≈ 56.2 µM)
MIC (Aspergillus flavus [11]): 15 µg/mL (≈ 33.7 µM)
inhibition at 10 µM (THP-1 [6]): 0%
MIC (Salmonella typhimurium [7]): 15 µg/mL (≈ 33.7 µM)
MIC (Candida albicans [9]): 10 µg/mL (≈ 22.5 µM)

CCOC(=O)C1=C(C)NC(=S)NC1c1ccc(NC(=S)Nc2ccc(OC)cc2)cc1 (stereo unspecified)
MIC (Escherichia coli [3]): 10 µg/mL (≈ 21.9 µM)
inhibition at 10 µM (THP-1 [4]): 48%
MIC (Staphylococcus aureus): 10 µg/mL (≈ 21.9 µM)
MIC (Bacillus subtilis [5]): 40 µg/mL (≈ 87.6 µM)
inhibition at 10 µM (THP-1 [6]): 0%
MIC (Salmonella typhimurium [7]): 25 µg/mL (≈ 54.8 µM)

CCOC(=O)C1=C(C)NC(=S)NC1c1ccc(NC(=S)Nc2c(F)cccc2C(F)(F)F)cc1 (stereo unspecified)
MIC (Aspergillus niger [1]): 30 µg/mL (≈ 58.5 µM)
MIC (Fusarium solani [10]): 45 µg/mL (≈ 87.8 µM)
MIC (Escherichia coli [3]): 40 µg/mL (≈ 78 µM)
inhibition at 10 µM (THP-1 [4]): 30%
MIC (Staphylococcus aureus): 35 µg/mL (≈ 68.3 µM)
MIC (Bacillus subtilis [5]): 55 µg/mL (≈ 107 µM)
MIC (Aspergillus flavus [11]): 80 µg/mL (≈ 156 µM)
inhibition at 10 µM (THP-1 [6]): 0%
MIC (Salmonella typhimurium [7]): 45 µg/mL (≈ 87.8 µM)
MIC (Candida albicans [9]): 55 µg/mL (≈ 107 µM)
